# Assay results from ChEMBL document CHEMBL1201862, “PubChem BioAssay data set” (2004).
# Active and inactive are the calls of the source.
# Columns and labels:
# Vero = experiment: host cell cytotoxicity of antiviral hits, dose response, cytotoxicity control for West Nile virus antiviral project, secondary assay (AID 1650); type: functional; settings: Chlorocebus sabaeus
# [1] = growth suppression of PTEN-null colon cells, dose response, cell-based, HCT116 PTEN knockout (AID 1047); type: functional;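 further: HCT116 colon tumor cells with PTEN knocked out; cells exposed to compound for 60 hours before readout; potency for loss of cell viability measured by luminescence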
# [2] = growth suppression of beta-catenin-knockout colon cells, dose response, cell-based, HCT116, human colon tumor (AID 1045); type: functional;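 further: HCT116 colon tumor cells with beta catenin knocked out; cells exposed to compound for 60 hours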
# Cytochrome P450 2C19 = Cytochrome P450 2C19 (Homo sapiens, UniProt P33261); experiment: qHTS Assay for Inhibitors and Substrates of Cytochrome P450 2C19. [Related pubchem assays: 410 ]; type: ADME; settings: read-out: Potency
# [3] = insulin promoter down-regulators in MIN6 cells, imaging, high-content screening, mouse beta cells (AID 1628); type: functional
# [4] = cytotoxicity in MIN6 insulinoma cells, dose response, cytotoxicity control, cell-based, mouse insulinoma (AID 2122); type: functional;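 further: confirmatory high-throughput counterscreen run to flag cytotoxic compounds; mouse MIN-6 beta cells carrying an insulin promoter eGFP reporter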
# Galanin receptor type 2 = Galanin receptor type 2 (Homo sapiens, UniProt O43603); experiment: Dose Response cell-based high-throughput screening assay to identify antagonists of galanin receptor 2 (GALR2). [Related pubchem assays: 828, 866 ]; type: functional
# [5] = target: Sphingosine 1-phosphate receptor 4 (Homo sapiens, UniProt O95977); experiment: Fluorescence dose response cell-based high throughput screening assay for antagonists of the Sphingosine 1-Phosphate Receptor 4 (S1P4). [Related pubchem assays: 1524 (Confirmation in triplicates.), 1510 (Primary screen.)]; type: functional
# [6] = target: Sphingosine 1-phosphate receptor 1 (Homo sapiens, UniProt P21453); type: functional;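 further: Tango beta-arrestin reporter U2OS cells stimulated with S1P near its EC80; inhibitor potency meaning antagonism of receptor activation by the natural agonist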
# [7] = Luminescence Cell-Based Dose Retest to Confirm Inhibitors of Cancer Stem Cells. [Related pubchem assays (depositor defined):AID2717, AID2721]; type: functional; settings: Homo sapiens
# [8] = target: T1, Heat shock factor protein 1 (Mus musculus, UniProt P38532); experiment: HSF1 potentiators in luciferase reporter cells, confirmation, cell-based, NIH3T3, luminescence, dose retest (AID 435004); type: functional;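 further: stress induced by proteasome inhibitor MG132 added 30 min after compound; luciferase reporter driven by HSF1 response element in NIH3T3 cells; actives raise luminescence as potentiators of the MG132 stress response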
# T1 sequence (P38532 whole entry): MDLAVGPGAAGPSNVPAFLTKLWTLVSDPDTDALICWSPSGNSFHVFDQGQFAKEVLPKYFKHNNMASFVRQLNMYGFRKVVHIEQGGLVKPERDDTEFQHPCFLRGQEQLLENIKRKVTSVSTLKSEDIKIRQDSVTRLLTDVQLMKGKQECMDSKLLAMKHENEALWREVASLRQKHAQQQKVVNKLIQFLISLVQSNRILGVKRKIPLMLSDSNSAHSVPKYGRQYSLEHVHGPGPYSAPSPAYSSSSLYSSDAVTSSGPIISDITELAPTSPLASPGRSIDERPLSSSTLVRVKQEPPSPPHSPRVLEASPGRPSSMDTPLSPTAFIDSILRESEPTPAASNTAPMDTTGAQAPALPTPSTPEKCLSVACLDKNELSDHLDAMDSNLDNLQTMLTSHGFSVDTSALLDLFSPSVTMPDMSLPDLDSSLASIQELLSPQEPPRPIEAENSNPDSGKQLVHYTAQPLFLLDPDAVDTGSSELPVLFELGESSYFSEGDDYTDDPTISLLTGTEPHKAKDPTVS
# [9] = Fluorescence-based cell-based high throughput dose response assay for inhibitors of the interaction of nucleotide-binding oligomerization domain containing 2 (NOD2) and the receptor-interacting serine-threonine kinase 2 (RIPK2).; type: functional; settings: Homo sapiens
# Paired box protein Pax-8 = Paired box protein Pax-8 (Homo sapiens, UniProt Q06710); experiment: inhibitors of PAX8-driven TPO luciferase reporter, dose response, RMG-I cells, cherry-pick (AID 687027); type: functional, cell-based;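 further: luciferase reporter driven by Pax8 target thyroperoxidase promoter measured by SteadyGlo luminescence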
# [10] = inhibitors of PGC1a acetylation in cells, dose response, cell-based, cherry-picked samples (AID 720514); type: functional;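 further: potency may reflect raised or lowered acetylation signal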
# HEK293 [11] = experiment: cells; settings: Homo sapiens
# HEK293 [12] = experiment: cells; settings: Homo sapiens; remark: listed apart in the source
# HeLa = experiment: Cytotoxicity counterscreen assay for transcriptional activators of heat shock protein 70 (Hsp70). [Related pubchem assays: 1203, 1252 ]; type: functional; settings: Homo sapiens;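 further: cells exposed to compound for 16 hours before readout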
# [13] = target: Heat shock protein HSP 90-alpha (Homo sapiens, UniProt P07900); type: functional, organism-based
# INS1 = experiment: beta cell apoptosis inhibitors, cytokine rescue, dose response, luminescence, retest (AID 449756); type: functional, cell-based; settings: Rattus norvegicus;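 further: cell death triggered by IL-1 beta plus TNF-alpha plus IFN-gamma mixture; protective hits raise ATP signal compared with cytokine alone wells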
# Genome polyprotein = Genome polyprotein (Hepatitis C virus, UniProt Q2Q167); experiment: HCV core protein dimerization inhibitors, dose response, biochemical, TR-FRET (AID 2159); design: species or system Hepacivirus hominis;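 further: blocks dimerization of HCV core protein measured by TR-FRET between tagged core106 pairs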
# [14] = target: T2, Neuropeptides B/W receptor type 1 (Homo sapiens, UniProt P48145); experiment: Fluorescence-based dose response cell-based high throughput screening assay to identify antagonists of the G-protein coupled receptor 7 (GPR7). [Related pubchem assays: 1952 (Screening assay (GPR7 antagonists).), 1880 (Summary AID.)]; type: functional
# T2 sequence (P48145 whole entry): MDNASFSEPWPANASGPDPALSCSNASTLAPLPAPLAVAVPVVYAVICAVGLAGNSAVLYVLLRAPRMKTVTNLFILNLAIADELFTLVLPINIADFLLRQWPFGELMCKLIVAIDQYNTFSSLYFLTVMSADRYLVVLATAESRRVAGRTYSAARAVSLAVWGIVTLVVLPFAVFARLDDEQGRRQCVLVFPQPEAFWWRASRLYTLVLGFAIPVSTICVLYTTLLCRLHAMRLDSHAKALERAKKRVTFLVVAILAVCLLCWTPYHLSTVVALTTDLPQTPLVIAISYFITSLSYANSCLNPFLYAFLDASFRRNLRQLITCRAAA
# [15] = target: Melanin-concentrating hormone receptor 1 (Homo sapiens, UniProt Q99705); experiment: Fluorescence-based counterscreen for antagonists of the G-protein coupled receptor 7 (GPR7): cell-based high throughput dose response assay to identify antagonists of the melanin-concentrating hormone receptor 1 (MCHR1).; type: functional
# [16] = inhibitors of firefly luciferase expression or activity, dose response, H4 neuroglioma cells, luminescence (AID 1990); type: functional, cell-based
# [17] = Luminescence Cell-Based Dose Response HTS to Identify Inhibitors of 5'UTR Stem-Loop Driven Prion Protein mRNA Translation in H4 Neuroglioblastoma Cells. [Related pubchem assays: 1827 (Project Summary), 1813 (Primary HTS)]; type: functional
# [18] = inhibitors of SNCA 5'UTR-driven reporter translation, confirmation, H4 neuroglioma cells, luminescence (AID 1988); type: functional, cell-based
# [19] = Luminescence-based dose response cell-based high throughput screening assay for cytotoxic compounds using the IEC-6 intestinal epithelial cell line. [Related pubchem assays: 1858 (Summary AID.), 1825 (Counterscreen.), 1907 (Confirmation screen.)]; type: functional
# Sequence of Sphingosine 1-phosphate receptor 4 (O95977 whole entry): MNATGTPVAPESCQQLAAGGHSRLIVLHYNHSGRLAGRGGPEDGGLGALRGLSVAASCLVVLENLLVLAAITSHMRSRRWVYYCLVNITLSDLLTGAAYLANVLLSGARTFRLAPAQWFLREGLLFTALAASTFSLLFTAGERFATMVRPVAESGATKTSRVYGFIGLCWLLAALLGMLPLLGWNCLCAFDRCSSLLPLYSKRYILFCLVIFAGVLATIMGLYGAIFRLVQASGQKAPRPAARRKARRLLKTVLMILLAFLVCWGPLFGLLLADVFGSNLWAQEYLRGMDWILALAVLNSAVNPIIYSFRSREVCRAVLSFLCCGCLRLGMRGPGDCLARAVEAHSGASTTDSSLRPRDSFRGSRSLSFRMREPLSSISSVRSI
# Sequence of Genome polyprotein (Q2Q167 whole entry): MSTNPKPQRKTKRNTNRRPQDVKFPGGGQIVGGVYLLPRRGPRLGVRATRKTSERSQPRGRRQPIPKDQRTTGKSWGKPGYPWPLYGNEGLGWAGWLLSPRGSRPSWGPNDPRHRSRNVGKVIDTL
# Sequence of Melanin-concentrating hormone receptor 1 (Q99705 whole entry): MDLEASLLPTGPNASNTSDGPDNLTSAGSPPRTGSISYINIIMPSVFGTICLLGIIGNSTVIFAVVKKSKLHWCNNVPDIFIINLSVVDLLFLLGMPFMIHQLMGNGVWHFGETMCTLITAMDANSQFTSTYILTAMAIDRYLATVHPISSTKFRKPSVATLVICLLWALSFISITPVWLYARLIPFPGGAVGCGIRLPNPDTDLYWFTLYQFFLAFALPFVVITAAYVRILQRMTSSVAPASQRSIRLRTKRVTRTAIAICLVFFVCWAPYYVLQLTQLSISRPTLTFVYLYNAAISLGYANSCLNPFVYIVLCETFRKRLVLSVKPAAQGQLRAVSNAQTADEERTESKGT
# Sequence of Sphingosine 1-phosphate receptor 1 (P21453 whole entry): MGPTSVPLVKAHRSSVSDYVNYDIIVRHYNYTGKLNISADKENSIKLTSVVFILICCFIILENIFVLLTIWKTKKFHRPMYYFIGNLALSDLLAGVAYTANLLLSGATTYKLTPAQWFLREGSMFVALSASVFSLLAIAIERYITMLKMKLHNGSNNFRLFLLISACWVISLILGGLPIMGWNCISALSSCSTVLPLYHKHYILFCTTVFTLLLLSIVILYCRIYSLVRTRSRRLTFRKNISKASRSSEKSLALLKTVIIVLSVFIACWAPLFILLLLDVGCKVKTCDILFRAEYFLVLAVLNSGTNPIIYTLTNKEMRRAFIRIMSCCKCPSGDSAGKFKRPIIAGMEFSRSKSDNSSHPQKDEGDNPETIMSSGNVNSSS
# Sequence of Galanin receptor type 2 (O43603 whole entry): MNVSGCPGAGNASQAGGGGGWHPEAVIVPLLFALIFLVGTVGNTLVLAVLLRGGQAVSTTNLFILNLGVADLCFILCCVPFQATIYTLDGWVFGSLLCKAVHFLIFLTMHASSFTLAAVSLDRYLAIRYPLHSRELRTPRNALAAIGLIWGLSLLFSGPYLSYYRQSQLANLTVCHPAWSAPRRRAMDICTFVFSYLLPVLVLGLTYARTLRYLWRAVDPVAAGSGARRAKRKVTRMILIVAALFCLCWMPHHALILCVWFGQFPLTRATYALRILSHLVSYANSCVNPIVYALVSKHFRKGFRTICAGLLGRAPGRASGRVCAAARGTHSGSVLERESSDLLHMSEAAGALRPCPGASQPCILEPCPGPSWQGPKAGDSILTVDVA
# Sequence of Paired box protein Pax-8 (Q06710 whole entry): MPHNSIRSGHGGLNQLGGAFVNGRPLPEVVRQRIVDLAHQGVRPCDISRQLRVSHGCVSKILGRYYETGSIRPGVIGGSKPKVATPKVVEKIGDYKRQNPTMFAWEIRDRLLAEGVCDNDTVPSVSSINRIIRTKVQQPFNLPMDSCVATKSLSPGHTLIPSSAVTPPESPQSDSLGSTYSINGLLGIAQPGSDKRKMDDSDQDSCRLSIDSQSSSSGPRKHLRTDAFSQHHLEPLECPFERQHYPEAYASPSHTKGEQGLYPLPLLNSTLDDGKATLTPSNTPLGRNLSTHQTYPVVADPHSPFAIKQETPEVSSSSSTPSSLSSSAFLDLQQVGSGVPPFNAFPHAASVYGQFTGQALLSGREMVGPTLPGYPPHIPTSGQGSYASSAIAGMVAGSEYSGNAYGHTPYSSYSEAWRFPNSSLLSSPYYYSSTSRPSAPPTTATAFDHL
# Sequence of Cytochrome P450 2C19 (P33261 whole entry): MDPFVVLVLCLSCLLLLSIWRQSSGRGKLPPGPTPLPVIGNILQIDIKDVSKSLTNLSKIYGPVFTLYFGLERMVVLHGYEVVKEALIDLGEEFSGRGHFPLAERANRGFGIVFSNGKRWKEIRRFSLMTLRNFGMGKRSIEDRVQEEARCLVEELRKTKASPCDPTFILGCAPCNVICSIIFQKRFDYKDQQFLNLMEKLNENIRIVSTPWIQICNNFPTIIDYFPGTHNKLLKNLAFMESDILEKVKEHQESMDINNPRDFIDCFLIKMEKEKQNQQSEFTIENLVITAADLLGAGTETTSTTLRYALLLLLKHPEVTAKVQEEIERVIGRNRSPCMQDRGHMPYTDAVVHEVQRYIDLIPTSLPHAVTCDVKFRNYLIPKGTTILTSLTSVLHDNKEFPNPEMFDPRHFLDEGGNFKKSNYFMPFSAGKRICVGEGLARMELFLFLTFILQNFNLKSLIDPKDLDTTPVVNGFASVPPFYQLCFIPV
structure (smiles),measurement,setting,value
C=CCn1c(SCC(=O)c2[nH]c(C)c(C(=O)OCC)c2C)nc2scc(-c3ccccc3)c2c1=O,CC50,Vero,> 100 µM (active)
same,EC50,[1],5.36 µM (active)
same,EC50,[2],3.85 µM (active)
OCC1OC(c2ccccc2)C=CC1Oc1cc(Cl)cc(Cl)c1 (stereo unspecified),AC50,Cytochrome P450 2C19,1.26 µM (inconclusive)
O=C(Cn1ncc(Cl)c(Cl)c1=O)N1CCN(S(=O)(=O)c2ccc3ccccc3c2)CC1,IC50,[3],1.34 µM (active)
same,IC50,[4],1.19 µM (active)
same,IC50,Galanin receptor type 2,5.37 µM (active)
same,IC50,[5],1.52 µM (active)
same,IC50,[6],8.59 µM (active)
same,AC50,[7],3.25 µM (active)
same,EC50,[8],3.7 µM (active)
same,IC50,[9],1.77 µM (active)
same,AC50,Paired box protein Pax-8,2.51 µM (active)
same,AC50,[10],4.24 µM (active)
same,EC50,HEK293 [11],> 59.6 µM (inactive)
same,EC50,HEK293 [12],> 59.6 µM (inactive)
CC(C)(C)C1C/C(=C/c2ccccn2)C(=O)/C(=C/c2ccccn2)C1 (stereo unspecified),CC50,HeLa,> 1.22 µM (not active)
same,AC50,[13],7.8 µM (active)
same,AC50,INS1,0.579 µM (active)
CCc1nnc(NCC(=O)N2CCc3ccccc32)s1,IC50,Genome polyprotein,> 49.8 µM (not active)
COc1ccc(S(=O)(=O)N(CC(=O)Nc2ccc(S(=O)(=O)N3CCOCC3)cc2)Cc2ccc(F)cc2)cc1,IC50,[14],> 43.8 µM (not active)
same,IC50,[15],> 43.8 µM (not active)
CC(C)NCC(O)Cn1c2c(c3ccccc31)CCc1c-2cnn1-c1ccccc1 (stereo unspecified),EC50,[16],8.19 µM (active)
same,EC50,[17],10.7 µM (active)
same,EC50,[18],6.18 µM (active)
same,IC50,[19],3.51 µM (active)
